Laboratory results as given in PMC9085577, “Discovery of a Potent and Orally Active Dual GPBAR1/CysLT1R Modulator for the Treatment of Metabolic Fatty Liver Disease” (Frontiers in Pharmacology, 2022).

System: liver transcriptome
Test: AmpliSeq liver transcriptome of HFD-F mice
Assay type: in vivo
Details: liver
Text: C57BL/6J male mice were fed a high fat diet (HFD) containing 59 KJ% fat plus 1% cholesterol, w/o sugar (ssniff ® EF R/M acc. D12330 mod. 22,7 ME/kg) and fructose (HFD-F) in drinking water (42 g/L), or normal chow diet for 61 days. Food intake was estimated as the difference of weight between the offered and the remnant amount of food at 3-days intervals. The food was provided as pressed pellets and the residual spillage was not considered. After 7 days, HFD-F mice were randomized to receive HFD-F alone or in combination with compound 2 (30 mg/kg/day) by gavage until the end of the experiment. Doses of each agent were chosen according to previously published data. Mice were housed under controlled temperature (22°C) and photoperiods (12:12-h light/dark cycle), allowed unrestricted access to standard mouse chow and tap water. The experimental protocol was approved by the Animal Care and Use Committee of the University of Perugia and by the Italian Minister of Health and Istituto Superiore di Sanità (Italy) and was in agreement with the European guidelines for use of experimental animals (permission n. 583/2017-PR). The general health of the animals was monitored daily by the Veterinarian in the animal facility. At the day of sacrifice, fed mice were deeply anesthetized with a mixture of tiletamine hypochloride and zolazepam hypochloride/xylazine at a dose of 50/5 mg/kg and sacrificed before 12 a.m.
High-quality RNA was extracted from mice livers, using the Direct-zol™ RNA MiniPrep w/Zymo-Spin™ IIC Columns (Zymo Research, Irvine, CA) according to the manufacturer’s instructions. RNA quality and quantity were assessed with the Qubit® RNA HS Assay Kit and a Qubit 3.0 fluorometer (Invitrogen, Carlsbad, CA) followed by agarose gel electrophoresis. Libraries were generated using the Ion AmpliSeq™ Transcriptome Mouse Gene Expression Core Panel and Chef-Ready Kit (Comprehensive evaluation of AmpliSeq transcriptome, a whole transcriptome RNA sequencing methodology) (Thermo Fisher Scientific, Waltham, MA). Briefly, 10 ng of RNA was reverse transcribed with SuperScript™ Vilo™ cDNA Synthesis Kit (Thermo Fisher Scientific, Waltham, MA) before library preparation on the Ion Chef™ instrument (Thermo Fisher Scientific, Waltham, MA). The resulting cDNA was amplified to prepare barcoded libraries using the Ion Code™ PCR Plate, and the Ion AmpliSeq™ Transcriptome Mouse Gene Expression Core Panel (Thermo Fisher Scientific, Waltham, MA), Chef-Ready Kit, according to the manufacturer’s instructions. Barcoded libraries were combined to a final concentration of 100 p.m., and used to prepare Template-Positive Ion Sphere™ (Thermo Fisher Scientific, Waltham, MA) Particles to load on Ion 540™ Chips, using the Ion 540™ Kit-Chef (Thermo Fisher Scientific, Waltham, MA). Sequencing was performed on an Ion S5™ Sequencer with Torrent Suite™ Software v6 (Thermo Fisher Scientific, Waltham, MA). The analyses were performed with a range of fold <−2 and >+2 and a p value <0.05, using Transcriptome Analysis Console Software (version 4.0.1), certified for AmpliSeq analysis (Thermo-Fisher). The transcriptomic data have been deposited as dataset on Mendeley data repository (reference number linking to the repository: Fiorucci, Stefano; Biagioli, Michele; Marchianò, Silvia; Di Giorgio, Cristina (2021), “Discovery of potent dual GPBAR1/CysLT1R modulator for the treatment of metabolic fatty liver disease,” Mendeley Data, V1, doi: 10.17632/6dnrk9fc72.1).

Cyp1a2 transcript Fold Change (HFD-F + compound 2 vs HFD-F): 4.77
Cyp2a5 transcript Fold Change (HFD-F + compound 2 vs HFD-F): 2.79
Cyp7a1 transcript Fold Change (HFD-F + compound 2 vs HFD-F): 3.98
Compound: O=C(O)c1cccc(-c2ccc(OCc3ccc4ccccc4n3)cc2)c1 [Compound 2, 4'-(quinolin-2-ylmethoxy)-[1,1′-biphenyl]-3-carboxylic acid]
Uhrf1 transcript Avg (log2) (HFD-F + compound 2): 0.79 log2
Upp2 transcript Avg (log2) (HFD-F + compound 2): 9.06 log2
Usp2 transcript Avg (log2) (HFD-F + compound 2): 5.61 log2
Wrn transcript Avg (log2) (HFD-F + compound 2): 3.27 log2
Zfp101 transcript Avg (log2) (HFD-F + compound 2): 1.28 log2
Zfp445 transcript Avg (log2) (HFD-F + compound 2): 6.23 log2
1810011O10Rik transcript Fold Change (HFD-F + compound 2 vs HFD-F): -2.01
2310001K24Rik transcript Fold Change (HFD-F + compound 2 vs HFD-F): 2.31
2310039H08Rik transcript Fold Change (HFD-F + compound 2 vs HFD-F): -2.25
4833423E24Rik transcript Fold Change (HFD-F + compound 2 vs HFD-F): 2.15
6430573F11Rik transcript Fold Change (HFD-F + compound 2 vs HFD-F): -2.15
AW549542 transcript Fold Change (HFD-F + compound 2 vs HFD-F): 2.59
Abcb1a transcript Fold Change (HFD-F + compound 2 vs HFD-F): 2.07
Acod1 transcript Fold Change (HFD-F + compound 2 vs HFD-F): -7.35
Acot3 transcript Fold Change (HFD-F + compound 2 vs HFD-F): 2.07
Adam8 transcript Fold Change (HFD-F + compound 2 vs HFD-F): -2.4
Adam11 transcript Fold Change (HFD-F + compound 2 vs HFD-F): 2.06
Anxa2 transcript Fold Change (HFD-F + compound 2 vs HFD-F): -2.16
Apcs transcript Fold Change (HFD-F + compound 2 vs HFD-F): -2.14
Arntl transcript Fold Change (HFD-F + compound 2 vs HFD-F): -2.68
Arsg transcript Fold Change (HFD-F + compound 2 vs HFD-F): -2.22
Atp1a3 transcript Fold Change (HFD-F + compound 2 vs HFD-F): -2.15
Aurka transcript Fold Change (HFD-F + compound 2 vs HFD-F): -2.11
Avpr1a transcript Fold Change (HFD-F + compound 2 vs HFD-F): -2.31
Bcat1 transcript Fold Change (HFD-F + compound 2 vs HFD-F): -2.27
C920009B18Rik transcript Fold Change (HFD-F + compound 2 vs HFD-F): -2.05
Cabyr transcript Fold Change (HFD-F + compound 2 vs HFD-F): 2.35
Capn11 transcript Fold Change (HFD-F + compound 2 vs HFD-F): 3.56
Ccl2 transcript Fold Change (HFD-F + compound 2 vs HFD-F): –9.45
Ccl3 transcript Fold Change (HFD-F + compound 2 vs HFD-F): –45.68
Ccl4 transcript Fold Change (HFD-F + compound 2 vs HFD-F): -3.76
Ccl7 transcript Fold Change (HFD-F + compound 2 vs HFD-F): -5.24
Ccl9 transcript Fold Change (HFD-F + compound 2 vs HFD-F): -2.83
Cd9 transcript Fold Change (HFD-F + compound 2 vs HFD-F): -2.05
Cd14 transcript Fold Change (HFD-F + compound 2 vs HFD-F): -2.38
Cd36 transcript Fold Change (HFD-F + compound 2 vs HFD-F): -2.5
Cd63 transcript Fold Change (HFD-F + compound 2 vs HFD-F): -2.18
Cdk1 transcript Fold Change (HFD-F + compound 2 vs HFD-F): -2.15
Cdkl2 transcript Fold Change (HFD-F + compound 2 vs HFD-F): -2.13
Cdkn1a transcript Fold Change (HFD-F + compound 2 vs HFD-F): -7.58
Cdkn3 transcript Fold Change (HFD-F + compound 2 vs HFD-F): -2.22
Ces2b transcript Fold Change (HFD-F + compound 2 vs HFD-F): 3.35
Cetn4 transcript Fold Change (HFD-F + compound 2 vs HFD-F): 2.21
Chka transcript Fold Change (HFD-F + compound 2 vs HFD-F): -3.91
Chrna4 transcript Fold Change (HFD-F + compound 2 vs HFD-F): -3.1
Cidea transcript Fold Change (HFD-F + compound 2 vs HFD-F): -4.55
Cidec transcript Fold Change (HFD-F + compound 2 vs HFD-F): -3.63
Cirbp transcript Fold Change (HFD-F + compound 2 vs HFD-F): 2.31
Ckap2 transcript Fold Change (HFD-F + compound 2 vs HFD-F): -2.19
Clec4e transcript Fold Change (HFD-F + compound 2 vs HFD-F): -2.29
Clec4d transcript Fold Change (HFD-F + compound 2 vs HFD-F): -2.99
Col27a1 transcript Fold Change (HFD-F + compound 2 vs HFD-F): 3.11
Csf3 transcript Fold Change (HFD-F + compound 2 vs HFD-F): -6.94
Cxcl2 transcript Fold Change (HFD-F + compound 2 vs HFD-F): –12.23
Cyp17a1 transcript Fold Change (HFD-F + compound 2 vs HFD-F): -2.12
D17H6S56E-5 transcript Fold Change (HFD-F + compound 2 vs HFD-F): -2.1
Dbp transcript Fold Change (HFD-F + compound 2 vs HFD-F): 3.21
Defb1 transcript Fold Change (HFD-F + compound 2 vs HFD-F): -2.44
Derl2 transcript Fold Change (HFD-F + compound 2 vs HFD-F): -2.01
Dhrs9 transcript Fold Change (HFD-F + compound 2 vs HFD-F): -2.42
Dtx4 transcript Fold Change (HFD-F + compound 2 vs HFD-F): -2.1
Dusp8 transcript Fold Change (HFD-F + compound 2 vs HFD-F): -2.11
Egr1 transcript Fold Change (HFD-F + compound 2 vs HFD-F): -4.09
Ell transcript Fold Change (HFD-F + compound 2 vs HFD-F): 2.35
Elovl3 transcript Fold Change (HFD-F + compound 2 vs HFD-F): -2.38
Elovl5 transcript Fold Change (HFD-F + compound 2 vs HFD-F): -2.41
Ephb2 transcript Fold Change (HFD-F + compound 2 vs HFD-F): -2.63
Epm2aip1 transcript Fold Change (HFD-F + compound 2 vs HFD-F): -2.65
Fam57a transcript Fold Change (HFD-F + compound 2 vs HFD-F): 2.55
Fgf21 transcript Fold Change (HFD-F + compound 2 vs HFD-F): -6.9
Fxyd2 transcript Fold Change (HFD-F + compound 2 vs HFD-F): -2.25
Gdf15 transcript Fold Change (HFD-F + compound 2 vs HFD-F): -3.99
Glipr1 transcript Fold Change (HFD-F + compound 2 vs HFD-F): -2.13
Glipr2 transcript Fold Change (HFD-F + compound 2 vs HFD-F): -2.29
Gm16063 transcript Fold Change (HFD-F + compound 2 vs HFD-F): 2.05
Gm30692 transcript Fold Change (HFD-F + compound 2 vs HFD-F): -2.13
Gm31555 transcript Fold Change (HFD-F + compound 2 vs HFD-F): 2.49
